Values of other authors in patent publication US7368472B2, “1,2,4-Triaminobenzene derivatives useful for treating disorders of the central nervous system” (priority 2002, dated 2008).

Key:
[1] = test system: electrically induced seizures, seizures induced chemically by pentylenetetrazole, picrotoxin and NMDA, DBA/2 mouse; conditions: oral and intraperitoneal administration, rats and mice
[2] = test system: amygdala kindling model of complex partial seizures; conditions: in vivo
[3] = test system: incidence of seizures in epileptic patients
[4] = test system: K(+) current in neuronal cells
[5] = test system: kainic acid-induced status epilepticus; conditions: rat
hippocampal kindling = conditions: rat
[6] = test system: animal models of anxiety-like behaviour; conditions: in vivo

For `CCOC(=O)Nc1ccc(NCc2ccc(F)cc2)cc1N` [Retigabine, N-(2-amino-4-(4-fluorobenzylamino)-phenyl) carbamic acid ethyl ester], the “activity in anticonvulsant tests” value [1] is given as “active”, the “activity in amygdala kindling model” value [2] is given as “active” and the “reduction of seizure incidence in clinical trials” value [3] is given as “effectiveness in reducing the incidence of seizures”. For the same compound, the “activation of K(+) current” value [4] was “activate a K(+) current”, the “neuroprotection after status epilepticus” value [5] was “prevent limbic neurodegeneration and the expression of markers of apoptosis” and the “progression of hippocampal kindling” value (hippocampal kindling) was “delay the progression of hippocampal kindling”. The “activity in models of anxiety-like behaviour” value [6] was “active”.
